Reference: patent US5591742A, “Pyridopyrimidinone antianginal agents” (Pfizer Inc., priority 1992, dated 1997)

Key:
cGMP-inhibited cAMP PDE = target: T1, cGMP-inhibited cAMP PDE (Oryctolagus cuniculus, UniProt G1ST54); test: PDE inhibition: cGMP-inhibited cAMP PDE from rabbit platelets; assay type: biochemical; conditions: in vitro
T1 construct: from tissue; host or cells: rabbit platelets
T1 sequence (G1ST54 1-1128): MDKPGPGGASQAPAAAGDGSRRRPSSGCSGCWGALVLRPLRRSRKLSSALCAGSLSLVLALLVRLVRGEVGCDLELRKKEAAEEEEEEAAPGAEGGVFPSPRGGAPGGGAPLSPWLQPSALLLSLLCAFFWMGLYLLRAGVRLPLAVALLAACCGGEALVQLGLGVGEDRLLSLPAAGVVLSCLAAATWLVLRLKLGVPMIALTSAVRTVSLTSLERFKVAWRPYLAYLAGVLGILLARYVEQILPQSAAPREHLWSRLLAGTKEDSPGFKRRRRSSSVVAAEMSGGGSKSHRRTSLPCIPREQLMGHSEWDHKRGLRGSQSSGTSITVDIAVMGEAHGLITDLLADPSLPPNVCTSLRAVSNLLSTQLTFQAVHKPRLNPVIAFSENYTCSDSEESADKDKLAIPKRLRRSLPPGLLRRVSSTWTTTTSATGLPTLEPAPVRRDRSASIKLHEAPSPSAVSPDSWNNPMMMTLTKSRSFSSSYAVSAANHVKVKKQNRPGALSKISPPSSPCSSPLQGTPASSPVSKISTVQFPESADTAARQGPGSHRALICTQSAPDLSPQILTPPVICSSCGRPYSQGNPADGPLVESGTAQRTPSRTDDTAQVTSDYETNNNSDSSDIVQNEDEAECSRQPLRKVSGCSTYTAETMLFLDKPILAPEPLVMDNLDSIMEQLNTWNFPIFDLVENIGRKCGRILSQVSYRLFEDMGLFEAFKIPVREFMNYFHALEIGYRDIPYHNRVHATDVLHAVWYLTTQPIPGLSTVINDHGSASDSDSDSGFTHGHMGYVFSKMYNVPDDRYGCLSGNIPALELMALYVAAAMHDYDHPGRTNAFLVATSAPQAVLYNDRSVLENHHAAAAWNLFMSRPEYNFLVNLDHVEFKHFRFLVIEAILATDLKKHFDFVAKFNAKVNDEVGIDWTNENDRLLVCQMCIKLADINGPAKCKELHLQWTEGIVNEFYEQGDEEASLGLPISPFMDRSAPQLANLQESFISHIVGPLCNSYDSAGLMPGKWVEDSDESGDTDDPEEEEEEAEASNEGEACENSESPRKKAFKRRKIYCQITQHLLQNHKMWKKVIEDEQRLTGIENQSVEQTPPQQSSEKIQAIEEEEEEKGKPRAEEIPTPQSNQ
Experimental: (§1) Phosphodiesterase activity
(§2) Compound affinities for cGMP and cAMP PDEs are assessed by determination of their IC50 values (the concentration of inhibitor required for 50% inhibition of enzyme activity). The PDE enzymes are isolated from rabbit platelets and rat kidney, essentially by the method of W. J. Thompson et al. (Biochem., 1971, 10, 311). The calcium/calmodulin (Ca/CAM)--independent cGMP PDE and the cGMP-inhibited cAMP PDE enzymes are obtained from rabbit platelets whilst, of the four major PDE enzymes of the rat kidney, the Ca/CAM-dependent cGMP PDE (fraction I) is isolated. Assays are performed using a modification of the "batch" method of W. J. Thompson and M. M. Appleman (Biochem., 1979, 18, 5228).

[1] = Safety profile in rabbit (i.v. or i.d.); assay type: in vivo
[2] = target: T2, calcium/calmodulin (Ca/CAM)-independent cGMP PDE (Oryctolagus cuniculus, UniProt G1SX67); test: PDE inhibition: Ca/CAM-independent cGMP PDE from rabbit platelets; assay type: biochemical; conditions: Ca/CAM-independent cGMP PDE, rabbit platelets, in vitro
T2 construct: The PDE enzymes are isolated from rabbit platelets and rat kidney; from tissue; host or cells: rabbit platelets
Experimental: as §1, §2

[3] = tested on: calcium/calmodulin (Ca/CAM)-independent cGMP PDE; test: as above; assay type: biochemical; conditions: IC50 cGMP-inhibited cAMP PDE / IC50 Ca/CAM-independent cGMP PDE
Experimental: as §1, §2

Row | IC50 (cGMP-inhibited cAMP PDE) [nM] | IC50 [2] [nM] | Structure (SMILES) | untoward effects ([1]; doses up to 3 mg/kg i.d.) | SELECTIVITY RATIO [3] | untoward effects ([1]; doses up to 10 mg/kg i.d.) | untoward effects ([1]; doses up to 0.1 mg/kg i.v.) | untoward effects ([1]; doses up to 1 mg/kg i.v.)
1 | 19000 | 21 | CCCc1ccnc2c(=O)[nH]c(-c3cc(S(=O)(=O)NCCN4CCOCC4)ccc3OCC)nc12 [Example 1, 2-[2-Ethoxy-5-(2-morpholinoethylsulphamoyl)phenyl]-8-n-propylprido [3,2,d]pyrimidin-4 (3H) -one] | no untoward effects being observed | 904 |  |  | 
2 | 13000 | 26 | CCCc1ccnc2c(=O)[nH]c(-c3cc(S(=O)(=O)N4CCN(C)CC4)ccc3OCC)nc12 [Example 2, 2-[2-Ethoxy-5(4-methyl-l-piperazinylsulphonyl)phenyl]-8-n-propylrido [3,2-d]pyrimidin-4(3H)-one] |  | 500 |  |  | 
3 |  |  | CCCc1ccnc2c(=O)[nH]c(-c3cc(S(=O)(=O)N4CCNCC4)ccc3OCC)nc12 [Example 3, 2-[2-Ethoxy-5-(1-piperazinylsulphonyl]phenyl]-8-n-propylprido [3,2-d]pyrimidin-4(3H) -one] |  |  | no untoward effects being observed |  | 
4 | 7600 | 5.6 | CCCc1ccnc2c(=O)[nH]c(-c3cc(S(=O)(=O)N4CCC(C(=O)OCC)CC4)ccc3OCC)nc12 [Example 4, 2-[2-Ethoxy-5-(4-ethoxycarbonylpiperidinosulphonyl)-phenyl]-8-n-propylprido[3,2-d]pyrimidin-4(3H) -one] |  | 1,357 |  |  | 
5 | 8300 | 14 | CCCc1ccnc2c(=O)[nH]c(-c3cc(S(=O)(=O)N(C)CCC(=O)OCC)ccc3OCC)nc12 [Example 5, 2-[2 -Ethoxy-5-(N-2-ethoxycarbonylethyl-N-methyl-sulphamoyl)phenyl]-8-n-propylpyrido[3,2-d]pyrimidin-4(3H)-one] |  | 592 |  |  | 
6 | 11000 | 9.8 | CCCc1ccnc2c(=O)[nH]c(-c3cc(S(=O)(=O)N4CCN(CCO)CC4)ccc3OCC)nc12 [Example 7, 2-{2-Ethoxy-5-[4-(2-hydroxyethyl)-1-piperazinyl-sulphony]phenyl}-8-n-propylprido[3.2-d]pyrimidin-4(3H)-one] |  | 1,122 |  | no untoward effects being observed | 
7 |  |  | CCCc1ccnc2c(=O)[nH]c(-c3cc(S(=O)(=O)NCCN4CCNC4=O)ccc3OCC)nc12 [Example 8, 2-{2-Ethoxy-5-[2-(1-imidazolidin-2-onyl)ethyl-sulphamoyl]phenyl}-8-n-propylprido[3,2-d]pryimidin-4 (3H)-one] | no untoward effects being observed |  |  |  | 
8 | 220 | 1.2 | CCCc1ccnc2c(=O)[nH]c(-c3cc(S(=O)(=O)N4CCC(C(=O)O)CC4)ccc3OCC)nc12 [Example 9, 2-[5-(4-Carboxypiperidinosulphonyl)-2-ethoxyphenyl]-8-n-propylprido [3,2-d]pyrimidin-4(3H)-one] |  | 183 |  |  | no untoward effects being observed
9 | 4600 | 19 | CCCc1ccnc2c(=O)[nH]c(-c3cc(NS(=O)(=O)c4cccnc4)ccc3OCC)nc12 [Example 12A, 2-[2-Ethoxy-5-(3-pyridylsulphonylamino)phenyl]-8-n-propylpyrido [3,2-d]pyrimidin-4(3H) -one] |  | 242 |  |  | 
10 | > 100000 | 25 | CCOc1ccc(S(=O)(=O)N2CCN(C)CC2)cc1-c1nc2c(C#N)ccnc2c(=O)[nH]1 [Example 24, 8-Cyano-2-[2-ethoxy-5-(4-methyl-1-piperazinyl-sulphonyl)phenyl]pyrido[3,2d]pyrimidin-4(3H)-one] |  | > 4,000 |  |  | 
